Results on one compound are retold here after patent publication US11667604B2, “Phenyl containing compound, intermediate thereof, preparation method therefor and application thereof” (SHANGHAI MODERN PHARMACEUTICAL ENGINEERING RESEARCH CENTER …, priority 2019, dated 2023).

SMILES strings stand for the structures. Structures can show the parent of a compound that is named as a salt.

The data set can be described thus: Stability testing of carriers in solid form, residual amount determined by HPLC, and appearance. Type of data set: physicochemical. The note with it: for Appearance: storage condition not specified. On the procedure:
The carrier of embodiment 1 was placed in solid form under normal temperature and normal light, normal temperature and away from light, 4° C. away from light and −18° C. away from light, respectively, and the residual amount of the carrier was measured after being placed for 1d, 3d, 7d, 30d, 60d, 90d and 120d, respectively, and the residual amount was determined by HPLC.
The sodium salt of N-(all-trans-retinoyl)-L-cysteic acid methyl ester was placed in solid form at normal temperature and normal light, at normal temperature and away from light, at 4° C. away from light and at −18° C. away from light respectively (other conditions are the same as those in embodiment 4), and the appearance and residual amount were tested after being placed for 1d, 3d, 7d and 30d, respectively, wherein the residual amount was determined by HPLC.

With `COC(=O)[C@H](CS(=O)(=O)O)NC(=O)/C=C(C)/C=C/C=C(C)/C=C/C1=C(C)CCCC1(C)C` [sodium salt of N-(all-trans-retinoyl)-L-cysteic acid methyl ester], the Appearance result (0 d) was “Yellow powder”, the Appearance entry (3 d) is given as “Orange”, the Appearance entry (7 d) is recorded as “Brown viscous” and the Appearance entry (30 d) is listed as “Dark brown viscous”. The residual amount (4° C. away from light, 0 d) is reported as 99.54%; the residual amount (4° C. away from light, 3 d) amounted to 93.76%; the residual amount (4° C. away from light, 7 d) worked out at 89.09%; the residual amount (4° C. away from light, 30 d) turned out to be 79.69%; the residual amount (normal temperature and away from light, 0 d) worked out at 99.54%; the residual amount (normal temperature and away from light, 3 d) worked out at 88.91%. The compound further gave a residual amount (normal temperature and away from light, 7 d) of 78.62%; a residual amount (normal temperature and normal light, 0 d) of 99.54%; a residual amount (normal temperature and normal light, 3 d) of 83.71%; a residual amount (normal temperature and normal light, 7 d) of 64.32%; a residual amount (−18° C. away from light, 0 d) of 99.54%; a residual amount (−18° C. away from light, 3 d) of 96.16%. Further, the residual amount came out at 94.17% (−18° C. away from light, 7 d) and 89.98% (−18° C. away from light, 30 d).
